This is an account of results in patent publication US8697840B2, “Peptide inhibition of lung epithelial apoptosis and pulmonary fibrosis” (Board of Regents, The University of Texas System, priority 2008, dated 2014).

In test [1] the test system is uPAR-dependent adhesion of cells to vitronectin. As to conditions: Wei Y et al., 1996, Science 273; cited from earlier work.
For test [2], the system named is bleo-induced collagen deposition in mouse lung. Kind of test: Mason's Trichrome stain for collagen of lung sections of bleo-treated mice. Format: in vivo. The conditions noted are these: for Collagen content in lung section: bleo-treated animals, peptide one day after bleo, day 21, trichrome stain. The method, then:
FIG. 13 is a set of photomicrographs showing that PP-1 prevents bleo-induced collagen deposition in mouse lung. Mice were treated with bleo (50 μg/ml) by intranasal instillation followed by treatment with PP-1 (10 nM) or control peptide CP-1 on day 2. Lungs were excised on day 21, inflated and fixed in formalin, a sectioned into […] sections which were subjected to Mason's Trichrome stain (a three-color stain that stains cell nuclei red, collagen green or blue, and cytoplasm red). Blue staining indicates collagen deposition in bleo-treated lung sections.
(§1) FIGS. 14A & 14B is a series of photomicrographs of lung epithelial tissue stained with Mason's trichrome stain for collagen (FIG. 10A) and by TUNEL staining for apoptosis (FIG. 10B). Bleo-treated animals were instilled with either PP-1, PP-2 or control peptide CP-1 one day after bleo treatment, The lungs were removed on day 21, subjected to the staining procedures and examined for collagen accumulation or apoptosis.
Collagen deposition in mouse lung after bleo treatment was investigated. Mice were treated with bleo (50 μg/ml) by intranasal instillation followed by treatment with PP-1 (10 nM) (designated as PP in Figure) or control peptide CP-1 (designated CP in FIG. 13) on day 2. Lungs were excised on day 21, inflated and fixed in formalin, a sectioned into […] sections which were subjected to Mason's Trichrome stain (a three-color stain that stains cell nuclei red, collagen green or blue, and cytoplasm red).
(§2) A comparison was made of normal and bleo-treated lung, and the effect of PP-1 and PP-2 on the bleo-treated lungs were examined. Animals were treated with bleo and peptides as above. Lung tissue was removed at day 21 and stained with Mason's trichrome stain for collagen and subjected to TUNEL staining for apoptosis.

Test [3] deals with bleomycin-induced lung epithelial cell (LEC) apoptosis. Description: TUNEL staining for apoptosis of lung sections of bleo-treated mice. Type of test: in vivo, mouse. The conditions noted are these: for Lung epithelial cell apoptosis: appearance of cells / Lung epithelial cell apoptosis: cell death: bleo-treated animals, peptide one day after bleo; for Lung epithelial cell apoptosis: appearance of cells: lung tissue day 21; for Lung epithelial cell apoptosis: cell death: lung tissue day 21, TUNEL. Here is the method:
The mice were sacrificed 24, 48 and 72 h later. Lungs were excised, inflated and fixed in formalin, and […] sections were analyzed by TUNEL staining. […]

Test [4] has as its target integrin-caveolin-uPAR complexes (Homo sapiens, UniProt Q03405). The conditions noted are these: at a concentration that blocked adhesion; Wei Y et al., 1996; cited from earlier work.
Test [5] has as its system bleo-induced lung injury in the mouse. Kind of test: Lung hydroxyproline (collagen deposition) after bleo-induced lung injury. Type of test: in vivo. The conditions noted are these: for bleomycin-induced collagen deposition (hPro content, % of control): 10 mM peptide i.p. osmotic pump 7 days after bleo. The method, then: (§3) FIGS. 10A and 10B are graphs showing the effect of PP-1 on fibrosis following bleo-induced lung injury in the mouse. […] 24 h after bleo, 0.1 ml osmotic pump filled with 10 mM PP-1 (designated “Bleo+PP” in Figures) or CP1 control scrambled peptide (“Bleo+CP1”) were implanted intraperitoneally. Lungs were harvested after 21 days, homogenized and the homogenates were subjected to the analysis of hydroxyproline or desmosine levels.
Anesthetized mice received intranasal bleomycin HCl solution containing 40 μg/50μl in sterile saline solution. After 24 h, 7 days or 14 days 10 mM PP-1 (“Bleo+PP-1”) or control peptide (Bleo+CP-1) were given ip using a 0.1 ml osmotic pump. Mice were sacrificed and lungs excised 21 days later. Lung homogenates were analyzed for hydroxyproline. Results are expressed a % of control hydroxyproline concentration.
Anesthetized mice received intranasal bleomycin HCl solution containing 40 μg/50 μl in sterile saline solution. After day 7, 10 mM peptide PP-2 (“Bleo+PP-2”) or control peptide (“Bleo+CP-2) were given intraperitoneally using a 0.1 ml osmotic pump. Lungs were excised after 21 days, lungs were homogenized and the homogenates were analyzed for hydroxyproline. Results are expressed a % of control hydroxyproline concentration.
The hPro content of the whole mouse lungs tissues were measured using the technique of Woessner J F, 1961, Arch. Biochem. Biophys. 93:440-7). Lung tissue from each animal was homogenized in 1.0 ml of extraction buffer. One ml 12N HCl was added, and the samples were hydrolyzed at 110° C. for 24 h. After cooling, 5 μl of the samples were mixed with 5 μl of citrate-acetate buffer (5% citric acid, 1.2% glacial acetic acid, 7.25% sodium acetate and 3.4% sodium hydroxide) and 100 μl of chloramine-T solution (1.4% chloramine-T, 10% N-propanol, and 80% citrate acetate buffer) in 96 well plates. The mixture was incubated for 20 min at room temperature. A total of 100 μl of Ehrlich's solution (2.5 g p-dimethylaminobenzaldehyde added to 9.3 ml of n-propanol and 3.9 ml of 70% perchloric acid) was added to each well and the plates incubated at 65° C. for 18 min. The absorbance of each sample was measured at 550 nm. Standard curves were generated for each experiment using a known concentration of reagent hPro. Results were expressed as % changes in hPro content (with total hPro content of saline-treated control mouse lungs considered 100%).
(§4) Lungs were harvested after 21 days, homogenized and the homogenates were subjected to the analysis of hydroxyproline as above (FIG. 10A) or desmosine (FIG. 10B). The effect of PP-1 on fibrosis in bleo-induced mouse lung injury was evaluated. Mice were treated with saline or 50 μg Bleo intranasally were implanted one day later with, 0.1 ml osmotic pumps i.p. The pumps were filled with either 10 mM (2.92 mg/100 μl) PP-1 (“Bleo+PP-1”) or control scrambled peptide CP-1 (“Bleo+CP-1”).

Test [6] has as its system bleo-treated lung. Kind of test: Histology of lung tissue of bleo-treated animals, pathological observations. Type of test: in vivo, mouse. The conditions noted are these: conclusion from Table 3, day 21.
Description: as §1, §2

Test [7] deals with p53. Description: IHC of lung tissue of bleo-treated mice: p53. Format: in vivo, mouse. As to conditions: bleomycin-treated mice, 24-72 h. Here is the method:
(§5) For immunohistochemical (IHC) analysis, lungs were inflated at constant pressure of 20 cm H2O, removed and fixed overnight in 2% paraformaldehyde in PBS. Tissue was dehydrated by passage through a standard alcohol series and was embedded in paraffin. 5 μm sections were deparaffinized with xylene followed by incubation with 100% and 95% alcohol. After 10 min of antigen retrieval, the slides were incubated with H2O2 for 30 min to quench endogenous peroxidase. Slides were incubated overnight with the respective antibodies in PBS containing 0.1% Tween 20 and further processed using Lab vision kit (Freemont Calif.).
(§6) An IHC study was conducted to analyze lung tissue for expression p53, uPA, uPAR, PAI-1 and cleaved caspase 3 (Table 2). […] These IHC observations were confirmed by Western blotting (see Example II and FIG. 5).

The subject of test [8] is cleaved PARP. Kind of test: IHC of lung sections of bleo-treated mice: cleaved PARP. Format: in vivo, mouse. As to conditions: peptide 4.5 μM i.p. days 1 and 2, bleomycin 40 μg/50 μl intranasal day 2; up to 72 h. The method, then:
On day 2 mice were treated with bleomycin (40 μg/50μl) by intranasal instillation. Mice were sacrificed 24, 48 and 72 h after later, lungs were excised, inflated and fixed in formalin, and […] sections were analyzed by immunohistochemistry (IHC) using an antibody specific for cleaved PARP.
as §5

In test [9] the test system is PAI-1. Kind of test: IHC of lung tissue of bleo-treated mice: PAI-1. Type of test: in vivo, mouse. The conditions noted are these: bleomycin-treated mice, 24-72 h. The method, then:
as §5, §6

The subject of test [10] is bleo-induced lung injury in the mouse. Kind of test: Lung desmosine (elastin) after bleo-induced lung injury. Type of test: in vivo. The conditions noted are these: 50 μg Bleo intranasally; 10 mM peptide in 0.1 ml osmotic pump i.p. one day later; lungs after 21 days. Here is the method: as §3, §4
Where [11] appears, read: bleomycin 40 μg/50 μl intranasal, lungs after 21 days.

integrin-caveolin-uPAR complexes, sequence (Q03405 23-305, one chain of several): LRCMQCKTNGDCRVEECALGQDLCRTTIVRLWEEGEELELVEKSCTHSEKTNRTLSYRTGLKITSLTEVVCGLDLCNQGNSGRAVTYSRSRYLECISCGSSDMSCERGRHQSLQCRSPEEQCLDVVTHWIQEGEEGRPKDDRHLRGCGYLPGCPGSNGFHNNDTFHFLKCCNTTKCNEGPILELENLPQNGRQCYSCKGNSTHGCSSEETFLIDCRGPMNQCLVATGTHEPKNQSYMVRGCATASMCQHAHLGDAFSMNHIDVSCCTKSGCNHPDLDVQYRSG

Regarding AESTYHHLSLGYMYTLN [CP-2], the “uPAR-dependent adhesion of cells to vitronectin” value in [1] is “inhibited uPAR-dependent adhesion of cells to vitronectin”. In test [2], the “Collagen content in lung section” value is listed as “Increased”. Also, in test [3], the “Lung epithelial cell apoptosis: appearance of cells” value is “Fibrotic cells,” and the “Lung epithelial cell apoptosis: cell death” value worked out at 90% cell. Further, the “disruption of integrin-caveolin-uPAR complexes” value in [4] is listed as “disrupted integrin-caveolin-uPAR complexes”. Further, the “bleomycin-induced collagen deposition (hPro content, % of control)” value in test [5] (setting [11]) is on record as “but not its control peptide CP-2 reversed bleomycin induced increases in collagen deposition”. Also, in test [6], the “effect on bleo-induced lung injury / Bleo-damaged lung tissue” value is listed as “did not have any discernible effect on Bleo-damaged lung tissue”.
“NYHYLESSMTALYTLGH [PP-2, initially disclosed as scrambled control for Peptide 25 of Wei Y et al]”: the “uPAR-dependent adhesion of cells to vitronectin” value in test [1] was “but not its control (which is PP-2 here) inhibited uPAR-dependent adhesion of cells to vitronectin”. In addition, the “Collagen content in lung section” value in test [2] is on record as “Minimal”. Further, in [2] (conclusion from Table 3, day 21), the “development of bleo-induced lung fibrosis” value is “prevented the development of bleo-induced lung fibrosis”. Moreover, in [3], the “Lung epithelial cell apoptosis: appearance of cells” value is reported as “No fibrosis,” and the “Lung epithelial cell apoptosis: cell death” value was found to be 11% cell. For the same sequence, the “disruption of integrin-caveolin-uPAR complexes” value in test [4] is given as “but not its control, disrupted integrin-caveolin-uPAR complexes”. Moreover, in [5] (setting [11]), the “bleomycin-induced collagen deposition (hPro content, % of control)” value was “significantly suppressed collagen deposition”. The “effect on bleo-induced lung injury / Bleo-damaged lung tissue” value in [6] is reported as “protected LECs from bleo-induced lung injury”.
Regarding “WGIDKAFFTTSTVTYKWFRY [CP-1, scrambled control peptide for PP-1 with the same amino acid composition]”, the “p53 expression in lung tissue (IHC)” value in [7] is recorded as “but not control peptide CP-1, blocked bleomycin induced p53 expression”. The “Collagen content in lung section” value in test [2] is “Increased”. Besides, in test [3], the “Lung epithelial cell apoptosis: appearance of cells” value was “Fibrotic cells,” and the “Lung epithelial cell apoptosis: cell death” value is given as 90% cell. Besides, the “apoptosis (TUNEL positive cells)” value in [3] (peptide 4.5 μM i.p. on day 1 and 2, bleomycin 40 μg/50 μl intranasal on day 2, 24, 48 and 72 h) is recorded as “but not with control peptide, reversed bleomycin-induced apoptosis”. For the same sequence, the “cleavage (degradation) of PARP in lung” value in test [8] is “but not control peptide CP-1 reversed such PARP degradation”. In addition, the lung hydroxyproline levels entry in test [5] (50 μg Bleo intranasally, 10 mM peptide in 0.1 ml osmotic pump i.p. one day later, lungs after 21 days) was “did not have this effect”. Besides, the “bleomycin-induced collagen deposition (hydroxyproline, % of control)” value in test [5] (bleomycin 40 μg/50 μl intranasal, 10 mM peptide i.p. osmotic pump after 24 h, 7 days or 14 days, lungs 21 days) is “but not control peptide CP-1 reversed bleomycin-induced increases in collagen deposition”. The “effect on bleo-induced lung injury / Bleo-damaged lung tissue” value in test [6] was “did not have any discernible effect on Bleo-damaged lung tissue”. Besides, the “PAI-1 expression in lung tissue (IHC)” value in [9] is recorded as “but not control peptide (CP-1) reduced this PAI-1 expression”. Moreover, in test [10], the lung desmosine levels entry is listed as “did not have this effect”.
